According to BigSolDB 2.1:

CCCSc1nc(N[C@@H]2C[C@H]2c2ccc(F)c(F)c2)c2nnn([C@@H]3C[C@H](OCCO)[C@@H](O)[C@H]3O)c2n1
solubility (mole fraction) (in ethyl acetate, 273.15 K): 0.00246 | solubility (mole fraction) (in ethyl acetate, 278.15 K): 0.00306 | solubility (mole fraction) (in ethyl acetate, 283.15 K): 0.00399 | solubility (mole fraction) (in ethyl acetate, 288.15 K): 0.00496 | solubility (mole fraction) (in ethyl acetate, 293.15 K): 0.00602 | solubility (mole fraction) (in ethyl acetate, 298.15 K): 0.00717 | solubility (mole fraction) (in ethyl acetate, 303.15 K): 0.00899 | solubility (mole fraction) (in ethyl acetate, 308.15 K): 0.0112 | solubility (mole fraction) (in ethyl acetate, 313.15 K): 0.0139 | solubility (mole fraction) (in isopropanol, 273.15 K): 0.00074 | solubility (mole fraction) (in isopropanol, 278.15 K): 0.00102 | solubility (mole fraction) (in isopropanol, 283.15 K): 0.00138 | solubility (mole fraction) (in isopropanol, 288.15 K): 0.00213 | solubility (mole fraction) (in isopropanol, 293.15 K): 0.00304 | solubility (mole fraction) (in isopropanol, 298.15 K): 0.00415 | solubility (mole fraction) (in isopropanol, 303.15 K): 0.00571 | solubility (mole fraction) (in isopropanol, 308.15 K): 0.00785 | solubility (mole fraction) (in isopropanol, 313.15 K): 0.0112 | solubility (mole fraction) (in isopropyl acetate, 273.15 K): 0.0011 | solubility (mole fraction) (in isopropyl acetate, 278.15 K): 0.00136 | solubility (mole fraction) (in isopropyl acetate, 283.15 K): 0.00171 | solubility (mole fraction) (in isopropyl acetate, 288.15 K): 0.00205 | solubility (mole fraction) (in isopropyl acetate, 293.15 K): 0.00243 | solubility (mole fraction) (in isopropyl acetate, 298.15 K): 0.00295 | solubility (mole fraction) (in isopropyl acetate, 303.15 K): 0.00355 | solubility (mole fraction) (in isopropyl acetate, 308.15 K): 0.0045 | solubility (mole fraction) (in isopropyl acetate, 313.15 K): 0.00545 | solubility (mole fraction) (in n-butanol, 273.15 K): 0.00106 | solubility (mole fraction) (in n-butanol, 278.15 K): 0.00155 | solubility (mole fraction) (in n-butanol, 283.15 K): 0.0021 | solubility (mole fraction) (in n-butanol, 288.15 K): 0.00278 | solubility (mole fraction) (in n-butanol, 293.15 K): 0.00371 | solubility (mole fraction) (in n-butanol, 298.15 K): 0.00476 | solubility (mole fraction) (in n-butanol, 303.15 K): 0.00633 | solubility (mole fraction) (in n-butanol, 308.15 K): 0.00826 | solubility (mole fraction) (in n-butanol, 313.15 K): 0.0114 | solubility (mole fraction) (in n-propanol, 273.15 K): 0.00212 | solubility (mole fraction) (in n-propanol, 278.15 K): 0.00288 | solubility (mole fraction) (in n-propanol, 283.15 K): 0.00387 | solubility (mole fraction) (in n-propanol, 288.15 K): 0.00513 | solubility (mole fraction) (in n-propanol, 293.15 K): 0.00683 | solubility (mole fraction) (in n-propanol, 298.15 K): 0.00958 | solubility (mole fraction) (in n-propanol, 303.15 K): 0.0128 | solubility (mole fraction) (in n-propanol, 308.15 K): 0.0165 | solubility (mole fraction) (in n-propanol, 313.15 K): 0.0222 | solubility (mole fraction) (in sec-butanol, 273.15 K): 0.000855 | solubility (mole fraction) (in sec-butanol, 278.15 K): 0.00116 | solubility (mole fraction) (in sec-butanol, 283.15 K): 0.00181 | solubility (mole fraction) (in sec-butanol, 288.15 K): 0.00249 | solubility (mole fraction) (in sec-butanol, 293.15 K): 0.00359 | solubility (mole fraction) (in sec-butanol, 298.15 K): 0.00494 | solubility (mole fraction) (in sec-butanol, 303.15 K): 0.00693 | solubility (mole fraction) (in sec-butanol, 308.15 K): 0.00992 | solubility (mole fraction) (in sec-butanol, 313.15 K): 0.0137
